Data taken from patent US20240261243A1, “NITRIC OXIDE DONORS, COMPOSITIONS, AND METHODS OF USE” (priority 2020, published 2024).

Assay: NO storage and release measurement (chemiluminescence nitric oxide analyzer)
Type: physicochemical
Experimental: N-diazeniumdiolates NO scaffolds are pH-triggered NO-release donors. Reacting with proton in the physiological condition (e.g., 37° C., pH 7.4), 1 mole of N-diazeniumdiolate regenerates 1 mole of the parent secondary amine compounds and two moles of NO radicals. The real-time detection of NO was performed by using a chemiluminescence-based nitric oxide analyzer (NOA). The total NO storage and dissociation kinetics of water-soluble NO Donors were measured in physiological condition (pH 7.40, 37° C.). The resulting NO-release parameters (e.g., total NO storage, half-life of NO release, maximum flux, and conversion efficiency) were evaluated for suitability as a pharmaceutical product.
Transfer the solution into the high-pressure vessel and purge the headspace with nitrogen. Mix the solution and set nitric oxide pressure to 25 bar (temp 20° C.). Allow the reaction to run for minimum of 3 days. Stop the reaction by venting the NO. Precipitate the reaction product in acetone (10:1 acetone:reaction mixture). Filter the precipitate and vacuum dry.
We sought to determine whether an NO donor and gallium nitrate have antimicrobial synergy against a lab strain of P. aeruginosa (PAK). The Checkerboard assay (described herein) was used with a hepta-substituted cyclodextrin-based NO donor (hereinafter referred to as BIOC76) having approximately ˜4.7 μmol NO/mg dry powder.

Structure (SMILES): O=NN(O)N(CCO)CC1OC2OC3C(CN(CCO)N(O)N=O)OC(OC4C(CN(CCO)N(O)N=O)OC(OC5C(CN(CCO)N(O)N=O)OC(OC6C(CN(CCO)N(O)N=O)OC(OC7C(CN(CCO)N(O)N=O)OC(OC8C(CN(CCO)N(O)N=O)OC(OC1C(O)C2O)C(O)C8O)C(O)C7O)C(O)C6O)C(O)C5O)C(O)C4O)C(O)C3O (stereo not shown) [BIOC76]
- NO content: ~4.7 μmol NO/mg dry powder
